This experiment has as its target T1, ERR1 (also known as ERR-α or ERR-1) (Homo sapiens, UniProt P11474).
T1 sequence (P11474 193-421 limits assumed): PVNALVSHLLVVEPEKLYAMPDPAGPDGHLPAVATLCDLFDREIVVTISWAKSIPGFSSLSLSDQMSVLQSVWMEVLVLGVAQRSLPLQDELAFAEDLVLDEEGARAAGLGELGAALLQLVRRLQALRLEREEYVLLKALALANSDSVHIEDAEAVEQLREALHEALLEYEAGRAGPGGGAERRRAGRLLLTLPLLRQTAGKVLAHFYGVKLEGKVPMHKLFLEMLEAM
In words: TR-FRET assay (disruption of co-activator peptide binding). The conditions noted are these: 6His-tagged ERR1 LBD, GST-hSRC2 co-activator polypeptide; average of 3 independent experiments. It counts as biochemical. The method, then: Time-Resolved Fluorescence Resonance Energy Transfer (TR-FRET) experiments were performed to examine the functional response of ERR1 (also known as ERR-α or ERR-1) ligands. The TR-FRET assay described herein relied on the conformation of ERR1 for binding to a co-activator peptide: when a test compound binds to ERR1 and alters its conformation, it can disrupt the binding of the co-activator peptide. The components of this homogeneous secondary assay included: the ^6His-tagged-ERR1LBD, a GST-labeled-hSRC2 co-activator polypeptide and a fluorescent donor/acceptor pair from CIS bio international htrf/bioassays (Bedford, Mass.) using both an α-GST Europium Cryptate (Eu) label and an α^6His-XL665 (allophycocyanin) fluorophore.
For TR-FRET measurements, the reaction was buffered in 25 mM Tris pH 8, 2.5 mM Hepes, 20 mM KCl, 1 mM DTT, and 0.05 mg/mL BSA (-lipids). The final concentrations of reagents were 6 nM of ERR1LBD, 6 nM GST-SRC-2 peptide, 30 nM Eu cryptate, and 7.5 nM XL665. Reactions were allowed to reach equilibrium at 25° C. for 4-18 hours before collecting data on the Analyst from LJL Biosystems (Molecular Devices Sunnyvale, Calif.). As a time-resolved method, the samples were excited at […] and emission was collected for 1 ms at both 615 and 665 nm with delays of 400 and 75 μs, respectively. Dose response curves were fitted using a hyperbolic equation and the data reported is the average of 3 independent experiments.
For orientation: TR-FRET usually uses a lanthanide donor and a delayed reading to cut background.

pEC50: −log10 of the molar value.

For orientation: pEC50 means the EC50 on a negative log10 scale, so that one unit is a factor of ten. With `O=C1N=C(N2CCC[C@H](C(=O)O)C2)S/C1=C\c1ccc2c(cnn2Cc2ccc(Cl)cc2C(F)(F)F)c1` [Example 48, 1-{5-[1-(4-Chloro-2-trifluoromethyl-benzyl)-1H-indazol-5-ylmethylene]-4-oxo-4,5-dihydro-thiazol-2-yl}piperidine-3-(S)-carboxylic acid], the negative logarithm of the EC50 (pEC50) was 7.84.
Turning to `O=C1N=C(N2CC[C@H]2C(=O)O)S/C1=C\c1ccc2c(cnn2Cc2ccc(C(F)(F)F)cc2C(F)(F)F)c1` [Example 49, 1-{5-[1-(2,4-Bis-trifluoromethyl-benzyl)-1H-indazol-5-ylmethylene]-4-oxo-4,5-dihydro-thiazol-2-yl}-azetidine-2-(S)-carboxylic acid], the pEC50 was 8.22.
In the case of `COc1ccc(Cn2ncc3cc(/C=C4\SC(N5CC[C@H]5C(=O)O)=NC4=O)ccc32)c(C(F)(F)F)c1` [Example 50, 1-{5-[1-(4-Methoxy-2-trifluoromethyl-benzyl)-1H-indazol-5-ylmethylene]-4-oxo-4,5-dihydro-thiazol-2-yl}-azetidine-2-(S)-carboxylic acid], the pEC50 was 8.11.
`COc1ccc(Cn2ncc3cc(/C=C4\SC(N5CCC[C@H](N)C5)=NC4=O)ccc32)c(C(F)(F)F)c1` [Example 51, 2-(3-(S)-Amino-piperidin-1-yl)-5-[1-(4-methoxy-2-trifluoromethyl-benzyl)-1H-indazol-5-ylmethylene]-thiazol-4-one] gave a negative logarithm of the EC50 (pEC50) of 8.05.
As for `N[C@@H]1CCCN(C2=NC(=O)/C(=C/c3ccc4c(cnn4Cc4ccc(C(F)(F)F)cc4C(F)(F)F)c3)S2)C1` [Example 53, 2-(3-(R)-Amino-piperidin-1-yl)-5-[1-(2,4-bis-trifluoromethyl-benzyl)-1H-indazol-5-ylmethylene]-thiazol-4-one], the pEC50 was 7.89.
Take `O=C1N=C(N2CCCNCC2)S/C1=C\c1ccc2c(cnn2Cc2ccc(C(F)(F)F)cc2C(F)(F)F)c1` [Example 55, 5-[1-(2,4-Bis-trifluoromethyl-benzyl)-1H-indazol-5-ylmethylene]-2-[1,4]diazepan-1-yl-thiazol-4-one]: the negative-log EC50 (pEC50) was 7.21.
The compound `NC1CCN(C2=NC(=O)/C(=C/c3ccc4c(cnn4Cc4ccc(Cl)cc4C(F)(F)F)c3)S2)CC1` [Example 57, 2-(4-Amino-piperidin-1-yl)-5-[1-(4-chloro-2-trifluoromethyl-benzyl)-1H-indazol-5-ylmethylene]-thiazol-4-one] gave a negative logarithm of the EC50 (pEC50) of 7.92.
`O=C1N=C(N2CCN(CC(F)(F)F)CC2)S/C1=C\c1ccc2c(cnn2Cc2ccc(Cl)cc2C(F)(F)F)c1` [Example 58, 5-[1-(4-Chloro-2-trifluoromethyl-benzyl)-1H-indazol-5-ylmethylene]-2-[4-(2,2,2-trifluoro-ethyl)-piperazin-1-yl]-thiazol-4-one] showed a pEC50 of 7.38.
In the case of `N[C@@H]1CCCN(C2=NC(=O)/C(=C/c3ccc4c(cnn4Cc4ccc(Cl)cc4C(F)(F)F)c3)S2)C1` [Example 59, 2-(3-(R)-Amino-piperidin-1-yl)-5-[1-(4-chloro-2-trifluoromethyl-benzyl)-1H-indazol-5-ylmethylene]-thiazol-4-one], the pEC50 is 7.64. Compared with the last compound, the pEC50 is 0.26 log units higher.
The figure for `N[C@H]1CCCN(C2=NC(=O)/C(=C/c3ccc4c(cnn4Cc4ccc(Cl)cc4C(F)(F)F)c3)S2)C1` [Example 60, 2-(3-(S)-Amino-piperidin-1-yl)-5-[1-(4-chloro-2-trifluoromethyl-benzyl)-1H-indazol-5-ylmethylene]-thiazol-4-one] is 7.71; for `O=C1N=C(N2CCN(CC(F)F)CC2)S/C1=C\c1ccc2c(cnn2Cc2ccc(Cl)cc2C(F)(F)F)c1` [Example 61, 5-[1-(4-Chloro-2-trifluoromethyl-benzyl)-1H-indazol-5-ylmethylene]-2-[4-(2,2-difluoro-ethyl)-piperazin-1-yl]-thiazol-4-one] it is 7.71.
Compound `CCN1CCN(C2=NC(=O)/C(=C/c3ccc4c(cnn4Cc4ccc(Cl)cc4C(F)(F)F)c3)S2)CC1` [Example 63, 5-[1-(4-Chloro-2-trifluoromethyl-benzyl)-1H-indazol-5-ylmethylene]-2-(4-ethyl-piperazin-1-yl)-thiazol-4-one] had a pEC50 of 7.27. Compared with the last compound, the pEC50 is 0.44 log units lower.
`C[C@H]1CN(C2=NC(=O)/C(=C/c3ccc4c(cnn4Cc4ccc(Cl)cc4C(F)(F)F)c3)S2)[C@@H](C)CN1` [Example 65, 5-[1-(4-Chloro-2-trifluoromethyl-benzyl)-1H-indazol-5-ylmethylene]-2-(2-(S),5-(S)-dimethyl-piperazin-1-yl)-thiazol-4-one] gave a pEC50 of 7.77.
For the compound `COCCN1CCN(C2=NC(=O)/C(=C/c3ccc4c(cnn4Cc4ccc(C(F)(F)F)cc4C(F)(F)F)c3)S2)CC1` [Example 66, 5-[1-(2,4-Bis-trifluoromethyl-benzyl)-1H-indazol-5-ylmethylene]-2-[4-(2-methoxy-ethyl)-piperazin-1-yl]-thiazol-4-one], the negative-log EC50 (pEC50) is 7.60. This pEC50 and that of the compound before are within 0.2 log units of each other.
The figure for `CCN1CCN(C2=NC(=O)/C(=C/c3ccc4c(cnn4Cc4ccc(C(F)(F)F)cc4C(F)(F)F)c3)S2)CC1` [Example 67, 5-[1-(2,4-Bis-trifluoromethyl-benzyl)-1H-indazol-5-ylmethylene]-2-(4-ethyl-piperazin-1-yl)-thiazol-4-one] is 7.68; for `O=C1N=C(N2CC(O)C2)S/C1=C\c1ccc2c(cnn2Cc2ccc(Cl)cc2C(F)(F)F)c1` [Example 68, 5-[1-(4-Chloro-2-trifluoromethyl-benzyl)-1H-indazol-5-ylmethylene]-2-(3-hydroxy-azetidin-1-yl)-thiazol-4-one] it is 8.02; for `O=C1N=C(N2C[C@@H]3C[C@H]2CN3)S/C1=C\c1ccc2c(cnn2Cc2ccc(C(F)(F)F)cc2C(F)(F)F)c1` [Example 69, 5-[1-(2,4-Bis-trifluoromethyl-benzyl)-1H-indazol-5-ylmethylene]-2-(2S,5S-diaza-bicyclo[2.2.1]hept-2-yl)-thiazol-4-one] it is 7.59.
Turning to `CN1C[C@@H]2C[C@H]1CN2C1=NC(=O)/C(=C/c2ccc3c(cnn3Cc3ccc(C(F)(F)F)cc3C(F)(F)F)c2)S1` [Example 70, 5-[1-(2,4-Bis-trifluoromethyl-benzyl)-1H-indazol-5-ylmethylene]-2-(5-methyl-2S,5S-diaza-bicyclo[2.2.1]hept-2-yl)-thiazol-4-one], the pEC50 is 7.96.
Regarding `CCOCCN1CCN(C2=NC(=O)/C(=C/c3ccc4c(cnn4Cc4ccc(C(F)(F)F)cc4C(F)(F)F)c3)S2)CC1` [Example 73, 5-[1-(2,4-Bis-trifluoromethyl-benzyl)-1H-indazol-5-ylmethylene]-2-[4-(2-ethoxy-ethyl)-piperazin-1-yl]-thiazol-4-one], the negative logarithm of the EC50 (pEC50) was 6.76.
In the case of `CC1(C(=O)O)CCN(C2=NC(=O)/C(=C/c3ccc4c(cnn4Cc4ccc(C(F)(F)F)cc4C(F)(F)F)c3)S2)CC1` [Example 74, 1-{5-[1-(2,4-Bis-trifluoromethyl-benzyl)-1H-indazol-5-ylmethylene]-4-oxo-4,5-dihydro-thiazol-2-yl}-4-methyl-piperidine-4-carboxylic acid], the pEC50 was 7.25.
The compound `CC1(C(=O)O)CCN(C2=NC(=O)/C(=C/c3ccc4c(cnn4Cc4ccc(Cl)cc4C(F)(F)F)c3)S2)CC1` [Example 75, 1-{5-[1-(4-Chloro-2-trifluoromethyl-benzyl)-1H-indazol-5-ylmethylene]-4-oxo-4,5-dihydro-thiazol-2-yl}-4-methyl-piperidine-4-carboxylic acid] had a negative-log EC50 (pEC50) of 7.13.

(Values after patent publication US8399681B2, “Substituted aminothiazolone indazoles as estrogen related receptor-alpha modulators” (Janssen Pharmaceutica NV, priority 2009, dated 2013).)
